Test results as given in patent publication US8680052B1, “Methods of treating, reducing the incidence of, and/or preventing ischemic events” (The Medicines Company, priority 2013, dated 2014).
Where two headings read alike, the source gives them in different places.

Key:
[1] = system: patients with atherosclerosis undergoing PCI
Experimental: The protocol called for aspirin (75 to 325 mg) to be administered to all patients. […] The choice of a periprocedural anticoagulant (bivalirudin, unfractionated heparin, low-molecular-weight heparin, or fondaparinux) was also at the discretion of the investigator. Glycoprotein IIb/IIIa inhibitors were allowed only as rescue therapy during PCI to treat new or persistent thrombus formation, slow or no reflow, side-branch compromise, dissection, or distal embolization. The investigator at the site determined the protocol for management of the arterial sheath.
The inclusion criteria for the trial were men or nonpregnant women, 18 years of age or older with coronary atherosclerosis who required PCI for stable angina, a non-ST-segment elevation acute coronary syndrome, or ST-segment elevation myocardial infarction (STEMI). Patients were required to provide written informed consent.
Major exclusion criteria were receipt of a P2Y12 inhibitor or abciximab at any time in the 7 days before randomization and receipt of eptifibatide or tirofiban or fibrinolytic therapy in the 12 hours before randomization.
The primary efficacy end point was the composite rate of death from any cause, myocardial infarction, IDR, or stent thrombosis in the 48 hours after randomization in the modified intention-to-treat population (which comprised patients who actually underwent PCI and received the study drug). […] The key secondary end point was the incidence of stent thrombosis at 48 hours. This end point included definite stent thrombosis, defined according to the criteria of the Academic Research Consortium, or intraprocedural stent thrombosis, which was assessed, with group assignments concealed, at an angiographic core laboratory (Cardiovascular Research Foundation). Intraprocedural stent thrombosis was defined as any new or worsened thrombus related to the stent procedure that was confirmed angiographically. Events of death, myocardial infarction, IDR, and stent thrombosis that occurred during the first 30 days after randomization were adjudicated by the clinical events committee at the Duke Clinical Research Institute. The study adhered to the universal definition of myocardial infarction for myocardial infarction unrelated to PCI but expanded on the definition of PCI-related myocardial infarction.
The numbers and percentages of patients within each analysis population (modified intention-to-treat, intention-to-treat, and safety) were summarized according to treatment group. The primary efficacy analysis of the rate of the composite end point of death from any cause, myocardial infarction, IDR, or stent thrombosis (with all events adjudicated by the clinical events committee) in the 48 hours after randomization was conducted in the modified intention-to-treat population. The primary safety analysis was conducted in the safety population, which comprised all patients who underwent randomization and received at least one dose of the study drug; patients were classified according to the actual treatment received. All calculations and statistical analyses were performed with the use of SAS software, version 9.2.

[2] = system: platelets; assay: Example 4: platelet activation measured by flow cytometry; format: in vivo, human; conditions: P-selectin expression, 1 μM ADP
Experimental: The study involved 12 patients who met the criteria of being 18-75 years of age, having coronary artery disease (CAD) documented by a previous MI or coronary revascularization, and taking 81 mg of aspirin daily. […] Prohibited concomitant medications included strong and potent CYP3A inhibitors, simvastatin and lovastatin at doses more than 40 mg/day, omeprazole or esomeprazole, and digoxin. Use of non-steroidal anti-inflammatory agents was discouraged during study participation but not prohibited.
Each patient was administered a 30 μg/kg bolus of cangrelor followed immediately by a 2 hr infusion at a rate of 4.0 μg/kg/min. A loading dose of ticagrelor (180 mg) was given after 0.5 hr or 1.25 hr (n=6 for each). Blood for pharmacodynamic platelet function studies was taken after 0.5 or 1.25 hr (corresponding to the time of ticagrelor load, n=6 for each), and then at 1.75, 2, 2.25, 2.5, 2.75, 3, 4, and 5.25 hr. Patients were assigned randomly to receive either 6 (n=6) or 7 (n=6) doses of ticagrelor to be taken every 12 hours following the discontinuation of the infusion of cangrelor. On study day 5, each patient was administered a 30 μg/kg bolus of cangrelor followed immediately by a 2 hr infusion at a rate of 4.0 μg/kg/min. Blood for pharmacodynamic assessment was taken after 1 and 2 hr. Adverse events were queried throughout study participation that ended with a telephone interview performed on study day 10-12.
Pharmacodynamic assessment included light transmission aggregometry (LTA), VerifyNow® P2Y12 assay, vasodilator-stimulated phosphoprotein (VASP) index, and platelet activation measured with the use of flow cytometry. Assessment of LTA, VerifyNow®, and platelet activation with the use of flow cytometry was performed within 30 min of blood being taken. In the case of flow cytometry, samples were processed to fixation and then batched for analysis. For VASP, index samples were batched and processed as recommended by the vendor within 2 h of blood being taken. This approach limited the time from fixation of VASP index to flow analysis to less than 1 h.
LTA induced by 5 μM and 20 μM adenosine diphosphate (ADP) was quantified ex vivo (i.e. in non-adjusted platelet rich plasma). Platelet-poor plasma was set as 100% aggregation, and both maximal (peak) and terminal (at 300 s) aggregation were measured with a PAP4 aggregometer (BioData, Horsham, Pa.). VerifyNow® P2Y12 assay (Accumetrics Inc, San Diego, Calif.) that measures the effects of drugs on the P2Y12 receptor by activating platelets with prostaglandin El in addition to ADP was used in accordance with the instructions provided by the manufacturer. Platelet reactivity was expressed in P2Y12 reaction units (PRU). Activation of platelets was identified with the use of flow cytometry as previously described.^17. And to determine the VASP index, a commercially available kit (Diagnostica Stago, Inc, Parsippany NJ) was used. ^17 Schneider D J, Sobel B E. Streamlining the design of promising clinical trials: in-vitro testing of antithrombotic regimens and multiple agonists of platelet activation. Coron Artery Dis. 2009; 20:175-8.

[3] = 48 hours, ITT, rate in parentheses
[4] = reference 5.25 h, Ticagrelor at 0.5 h
[5] = reference 5.25 h, Ticagrelor at 1.25 h

COC(=O)[C@H](c1ccccc1Cl)N1CCc2sccc2C1 [Clopidogrel, clopidogrel, reference compound]
rate of stent thrombosis (key secondary efficacy end point) ([1]; 48 hours): 1.4% | Death ([1]; 48 hours, ITT, n/N): 21/5561 | Death/MI ([1]; 48 hours, ITT, n/N): 275/5561 | Death/MI/IDR ([1]; 48 hours, ITT, n/N): 289/5561 | Death/MI/IDR/ST ([1]; 48 hours, ITT, n/N): 325/5561 | Death/MI/IDR/ST/GUSTO Severe Bleeding (Net Adverse Clinical Events, NACE) ([1]; 48 hours, ITT, n/N): 330/5561 | Death/MI/ST ([1]; 48 hours, ITT, n/N): 315/5561 | Death/Q-wave MI/IDR ([1]; 48 hours, ITT, n/N): 67/5561 | Death/ST ([1]; 48 hours, ITT, n/N): 90/5561 | IDR ([1]; 48 hours, ITT, n/N): 38/5561 | MI ([1]; 48 hours, ITT, n/N): 255/5561 | Q-wave MI ([1]; 48 hours, ITT, n/N): 18/5561 | Stent thrombosis ([1]; 48 hours, ITT, n/N): 74/5561 | Death [1, 3]: (0.4) | Death/MI [1, 3]: (5.0) | Death/MI/IDR [1, 3]: (5.2) | Death/MI/IDR/ST [1, 3]: (5.8) | Death/MI/IDR/ST/GUSTO Severe Bleeding (Net Adverse Clinical Events, NACE) [1, 3]: (5.9) | Death/MI/ST [1, 3]: (5.7) | Death/Q-wave MI/IDR [1, 3]: (1.2) | Death/ST [1, 3]: (1.6) | IDR [1, 3]: (0.7) | MI [1, 3]: (4.6) | Q-wave MI [1, 3]: (0.3) | Stent thrombosis [1, 3]: (1.3) | rate of primary composite efficacy end point (death from any cause, myocardial infarction, IDR, or stent thrombosis) ([1]; 48 hours, modified intention-to-treat): 5.9% | net rate of adverse clinical events (primary efficacy plus primary safety end point) ([1]; 48 hours, post hoc): 6.0% | Stent thrombosis ([1]; 30 days): 1.9% | rate of the composite efficacy end point ([1]; 30 days): 7.0% | rate of intraprocedural stent thrombosis ([1]; in vivo): 1.0% | rate of procedural complications ([1]; in vivo): 4.5% | use of rescue therapy with a glycoprotein IIb/IIIa inhibitor ([1]; in vivo): 3.5%

CCCSc1nc(N[C@@H]2C[C@H]2c2ccc(F)c(F)c2)c2nnn([C@@H]3C[C@H](OCCO)[C@@H](O)[C@H]3O)c2n1 [ticagrelor]
Flow Cytometry IPR ([2]; 2.25 h, All): 84 ± 8 | Flow Cytometry PR ([2]; 2.25 h, All): 7.8 ± 3.7 | Flow Cytometry IPR ([2]; 2.25 h, Ticagrelor at 0.5 h): 86 ± 8 | Flow Cytometry PR ([2]; 2.25 h, Ticagrelor at 0.5 h): 7.5 ± 2.4 | Flow Cytometry IPR ([2]; 2.25 h, Ticagrelor at 1.25 h): 83 ± 9 | Flow Cytometry PR ([2]; 2.25 h, Ticagrelor at 1.25 h): 8 ± 4.9 | Flow Cytometry IPR ([2]; 2.5 h, All): 67 ± 29 | Flow Cytometry PR ([2]; 2.5 h, All): 14 ± 8.6 | Flow Cytometry IPR ([2]; 2.5 h, Ticagrelor at 0.5 h): 81 ± 17 | Flow Cytometry PR ([2]; 2.5 h, Ticagrelor at 0.5 h): 9.2 ± 5.9 | Flow Cytometry IPR ([2]; 2.5 h, Ticagrelor at 1.25 h): 53 ± 34 | Flow Cytometry PR ([2]; 2.5 h, Ticagrelor at 1.25 h): 19 ± 8.5 | Flow Cytometry IPR ([2]; 2.75 h, All): 80 ± 17 | Flow Cytometry PR ([2]; 2.75 h, All): 8.8 ± 5.6 | Flow Cytometry IPR ([2]; 2.75 h, Ticagrelor at 0.5 h): 82 ± 13 | Flow Cytometry PR ([2]; 2.75 h, Ticagrelor at 0.5 h): 9.3 ± 4.7 | Flow Cytometry IPR ([2]; 2.75 h, Ticagrelor at 1.25 h): 79 ± 22 | Flow Cytometry PR ([2]; 2.75 h, Ticagrelor at 1.25 h): 8.3 ± 6.9 | Flow Cytometry IPR ([2]; 3 h, All): 86 ± 13 | Flow Cytometry PR ([2]; 3 h, All): 6.5 ± 4.1 | Flow Cytometry IPR ([2]; 3 h, Ticagrelor at 0.5 h): 87 ± 10 | Flow Cytometry PR ([2]; 3 h, Ticagrelor at 0.5 h): 6.8 ± 2.9 | Flow Cytometry IPR ([2]; 3 h, Ticagrelor at 1.25 h): 86 ± 16 | Flow Cytometry PR ([2]; 3 h, Ticagrelor at 1.25 h): 6.2 ± 5.3 | Flow Cytometry IPR ([2]; 4 h, All): 84 ± 15 | Flow Cytometry PR ([2]; 4 h, All): 7.5 ± 6.2 | Flow Cytometry IPR ([2]; 4 h, Ticagrelor at 0.5 h): 90 ± 4 | Flow Cytometry PR ([2]; 4 h, Ticagrelor at 0.5 h): 5.5 ± 2.4 | Flow Cytometry IPR ([2]; 4 h, Ticagrelor at 1.25 h): 78 ± 20 | Flow Cytometry PR ([2]; 4 h, Ticagrelor at 1.25 h): 9.5 ± 8.2 | Flow Cytometry IPR ([2]; reference 5.25 h, All): 91 ± 6 | Flow Cytometry PR ([2]; reference 5.25 h, All): 5 ± 3.6 | Flow Cytometry IPR [2, 4]: 91 ± 4 | Flow Cytometry PR [2, 4]: 5.5 ± 3.9 | Flow Cytometry IPR [2, 5]: 91 ± 7 | Flow Cytometry PR [2, 5]: 4.5 ± 2
